Assay results as given in patent US20170188607A1, “SOLUBILIZATION OF A SWEET MODULATOR AND FLAVOR” (Firmenich SA, priority 2014, published 2017).

Assay: Amount of compound remaining in solution in acidic syrup kept at 3° C., measured by UV spectroscopy as a function of time
Format: physicochemical
Experimental: A concentrated solution 1 of (S)-1-(3-(((4-amino-2,2-dioxido-1H-benzo[c][1,2,6]thiadiazin-5-yl)oxy)methyl)piperidin-1-yl)-3-methylbutan-1-one at 0.3% (w/w) (3000 ppm) was prepared in water. pH was adjusted to 11 using NaOH to form (S)-1-(3-(((4-amino-2,2-dioxido-1H-benzo[c][1,2,6]thiadiazin-5-yl)oxy)methyl)piperidin-1-yl)-3-methylbutan-1-one sodium salt and obtain an homogeneous solution. Next, a syrup was prepared by mixing an aqueous solution of High Fructose Corn Syrup (HFCS), citric acid and deionized water. The final syrup contained 34% fructose, 0.68% citric acid, 0.1% sodium citrate and 65.22% water, with a pH of 2. […] The sample was kept at 3° C. and the amount of (S)-1-(3-(((4-amino-2,2-dioxido-1H-benzo[c][1,2,6]thiadiazin-5-yl)oxy)methyl)piperidin-1-yl)-3-methylbutan-1-one was measured by UV spectroscopy as a function of time. The amount of (S)-1-(3-(((4-amino-2,2-dioxido-1H-benzo[c][1,2,6]thiadiazin-5-yl)oxy)methyl)piperidin-1-yl)-3-methylbutan-1-one was reduced to 28 ppm after 1 week and first crystals were visually observed. After 12 weeks 1.7 ppm of (S)-1-(3-(((4-amino-2,2-dioxido-1H-benzo[c][1,2,6]thiadiazin-5-yl)oxy)methyl)piperidin-1-yl)-3-methylbutan-1-one remained in solution.
(§1) A concentrated solution 1 of (S)-1-(3-(((4-amino-2,2-dioxido-1H-benzo[c][1,2,6]thiadiazin-5-yl)oxy)methyl)piperidin-1-yl)-3-methylbutan-1-one at 0.3% (w/w) (3000 ppm) was prepared in water. pH was adjusted to 11 using NaOH to form (S)-1-(3-(((4-amino-2,2-dioxido-1H-benzo[c][1,2,6]thiadiazin-5-yl)oxy)methyl)piperidin-1-yl)-3-methylbutan-1-one sodium salt and obtain an homogeneous solution. Next, a syrup was prepared by mixing an aqueous solution of HFCS, citric acid, PVP 55k and deionized water. The final syrup contained 34% fructose, 0.68% citric acid, 0.1% sodium citrate, 0.03% PVP and 65.19% water. […] The sample was kept at 3° C. and the amount of (S)-1-(3-(((4-amino-2,2-dioxido-1H-benzo[c][1,2,6]thiadiazin-5-yl)oxy)methyl)piperidin-1-yl)-3-methylbutan-1-one was measured by UV spectroscopy as a function of time. The amount of (S)-1-(3-(((4-amino-2,2-dioxido-1H-benzo[c][1,2,6]thiadiazin-5-yl)oxy)methyl)piperidin-1-yl)-3-methylbutan-1-one was maintained at 30 ppm for 4 weeks, before a slight decrease and appearance of few crystals. After 12 weeks 9.6 ppm of (S)-1-(3-(((4-amino-2,2-dioxido-1H-benzo[c][1,2,6]thiadiazin-5-yl)oxy)methyl)piperidin-1-yl)-3-methylbutan-1-one remained in solution.
as §1, with “PVP 55k, maltodextrin (18DE)” for “PVP 55k”, “fructose, 15% maltodextrin,” for “fructose,”, “for 8” for “for 4”, “crystals.” for “crystals. After 12 weeks 9.6 ppm of (S)-1-(3-(((4-amino-2,2-dioxido-1H-benzo[c][1,2,6]thiadiazin-5-yl)oxy)methyl)piperidin-1-yl)-3-methylbutan-1-one remained in solution.”
A concentrated solution 1 of (S)-1-(3-(((4-amino-2,2-dioxido-1H-benzo[c][1,2,6]thiadiazin-5-yl)oxy)methyl)piperidin-1-yl)-3-methylbutan-1-one at 0.3% (w/w) (3000 ppm) was prepared in water. pH was adjusted to 11 using NaOH to form (S)-1-(3-(((4-amino-2,2-dioxido-1H-benzo[c][1,2,6]thiadiazin-5-yl)oxy)methyl)piperidin-1-yl)-3-methylbutan-1-one sodium salt and obtain an homogeneous solution. […]

- amount remaining in solution (Example 1 (comparative): 30 ppm start, syrup 34 Brix (34% fructose, 0.68% citric acid, 0.1% sodium citrate), pH 2, no polymer, 3° C., after 1 week, first crystals visually observed): 28 ppm
- amount remaining in solution (Example 1 (comparative): 30 ppm start, syrup 34 Brix, pH 2, no polymer, 3° C., after 12 weeks): 1.7 ppm
- amount remaining in solution (Example 2: 30 ppm start, syrup 34 Brix with 0.03% PVP 55k, 3° C., after 12 weeks): 9.6 ppm
- amount maintained in solution (Example 2: 30 ppm start, syrup 34 Brix with 0.03% PVP 55k, 3° C., maintained for 4 weeks, then slight decrease and few crystals): 30 ppm
- amount remaining in solution (Example 3: 30 ppm start, syrup 34 Brix with 0.03% PVP 55k and 15% maltodextrin (18DE), 3° C., after 12 weeks): 27.3 ppm
- amount maintained in solution (Example 3: 30 ppm start, syrup 34 Brix with 0.03% PVP 55k and 15% maltodextrin (18DE), 3° C., maintained for 8 weeks, then slight decrease and few crystals): 30 ppm
- amount maintained in solution (Example 4: 30 ppm start, syrup 34 Brix with 0.03% HPMC (22 kDa), 3° C., maintained for 12 weeks): 30 ppm
- amount remaining in solution (Example 10 (comparative): 18 ppm start, syrup 45 Brix, pH 2, no polymer, 3° C., after 7 weeks, first crystals visually observed): 15.8 ppm
- amount remaining in solution (Example 10 (comparative): 18 ppm start, syrup 45 Brix, pH 2, no polymer, 3° C., after 14 weeks): 3.6 ppm
- amount maintained in solution (Example 11: 18 ppm start, syrup 45 Brix with 0.0009% HPMC (Methocel K99), pH 2, 3° C., maintained for 17 weeks): 18 ppm
- amount maintained in solution (Example 12: 18 ppm start, syrup 45 Brix with 0.0009% CMC, pH 2, 3° C., maintained for 16 weeks): 18 ppm
- amount remaining in solution (Example 13 (comparative): 18 ppm start, syrup 20 Brix, pH 2, no polymer, 3° C., after 3.5 weeks, crystals visually observed): 14 ppm
- amount remaining in solution (Example 13 (comparative): 18 ppm start, syrup 20 Brix, pH 2, no polymer, 3° C., after 18 weeks): 4 ppm
- amount maintained in solution (Example 14: 18 ppm start, syrup 20 Brix with 0.0009% HPMC (Methocel K99), pH 2, 3° C., maintained for 18 weeks): 18 ppm
SMILES: CC(C)CC(=O)N1CCC[C@H](COc2cccc3c2C(N)=NS(=O)(=O)N3)C1 [(S)-1-(3-(((4-amino-2,2-dioxido-1H-benzo[c][1,2,6]thiadiazin-5-yl)oxy)methyl)piperidin-1-yl)-3-methylbutan-1-one]
